Laboratory results reported in paper PMC6910612 (Translational Vision Science & Technology, 2019).

How the values were obtained:
[1] = system: P23H, E181K and T17M rhodopsin; details: cells; cited from earlier work
opsin = details: cited from earlier work
wild-type opsin = wild-type opsin (Homo sapiens, UniProt P08100); assay: 9-cis-retinal binding to opsin; details: 3.0 μM purified wild-type opsin
P23H Rho transgenic rats = details: cited from earlier work
P23H rhodopsin = details: P23H knock-in mice; cited from earlier work

CC(=C/C(=O)O)/C=C/C=C(\C)C1C=C2C(C)(C)CCCC2(C)O1 (stereo not drawn) [13-cis-5,8-ERA]
folding and transport of rhodopsin mutants [1]: more effective in promoting the folding and transport of the P23H and E181K mutations than it was for the T17M mutation
competition with 9-cis-retinal for binding to opsin (opsin): appeared to compete with 9-cis-retinal for binding to opsin

CC1=C(/C=C/C(C)=C\C=C\C(C)=C\C=O)C(C)(C)CCC1 [9-cis-retinal]
concentration at which opsin was saturated (wild-type opsin): 5 µM

CN(C)C(=N)N=C(N)N [metformin]
retinal degeneration (P23H Rho transgenic rats): increased retinal degeneration
transport of P23H rhodopsin to outer segments (P23H rhodopsin): increased transport of P23H rhodopsin to outer segments
